{
  "source": "patent US20120028045A1",
  "about": "“Processes for the Preparation of Indiplon and Intermediates Thereof” (Glenmark Generics LTD, priority 2009, published 2012)",
  "assay_type_in_all_cases": "physicochemical",
  "key": {"[1]": {"test": "Particle size distribution (laser light scattering, Malvern Mastersizer 2000)", "conditions": "crystal particles of indiplon", "text": "As used herein “Particle Size Distribution (P.S.D.)” means the cumulative volume size distribution of equivalent spherical diameters as determined by laser diffraction at 1 bar dispersive pressure in Sympatec Helos equipment.\n“Mean particle size distribution, i.e., d (0.5)” correspondingly, means the median of said particle size distribution.\nThe particle size can be determined by such techniques as, for example, Malvern light scattering, a laser light scattering technique, etc., while herein, used Malvern Mastersizer 2000. It is noted the notation Dx means that X % of the particles have a diameter less than a specified diameter D. The particle sizes of the Indiplon can be obtained by, for example, any milling, grinding, micronizing or other particle size reduction method known in the art to bring the solid state indiplon any of the foregoing desired particle size range."}, "[2]": {"test": "Bulk density as per USP method I"}, "[3]": {"test": "Specific surface area by BET (nitrogen absorption)", "conditions": "crystal particles of indiplon", "text": "Specific surface area is defined in units of square meters per gram (m^2/g). It is usually measured by nitrogen absorption analysis. In this analysis, nitrogen is absorbed on the surface of the substance. The amount of the absorbed nitrogen (as measured during the absorption or the subsequent desorption process) is related to the surface area via a formula known as the B. ET. formula."}},
  "data": [
    {"smiles": "CC(=O)N(C)c1cccc(-c2ccnc3c(C(=O)c4cccs4)cnn23)c1", "note": "[indiplon, N-methyl-N-[3-[3-(thien-2-ylcarbonyl)pyrazolo[1,5-a]pyrimidin-7-yl]phenyl]acetamide]", "values": [
      {"measurement": "Particle size Distribution d(0.1)", "setting": "[1]", "value": "d(0.1) 4.949 μm"},
      {"measurement": "Particle size Distribution d(0.9)", "setting": "[1]", "value": "d(0.9) 24.325 μm"},
      {"measurement": "Particle size Distribution d(0.5)", "setting": "[1]; median particle size", "value": "d(0.5) 11.641 μm"},
      {"measurement": "Bulk Density, after tapping (750)", "setting": "[2]; after tapping (750), USP method I", "value": "After tapping (750) = 0.47 g/ml as per USP"},
      {"measurement": "Bulk Density, as such", "setting": "[2]; as such (untapped)", "value": "As such = 0.24 g/ml"},
      {"measurement": "Surface area by BET", "setting": "[3]", "value": 1.41, "unit": "m^2/gm"}
    ]}
  ]
}
